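Growth conditions: 96-well plates. Treatment: test compound, 48 hours, 5 concentrations. Analysis: linear interpolation between bracketing concentrations; unreached endpoints set to highest concentration. GI50 marks 50% less growth.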 Calls of active or inactive are those of the source. No stated cut-off is given here; in the data, active = GI50 up to about 1.1 µM and inactive = higher.
Columns and labels:
Test in all cases: NCI-60 cell line screen, 48 h
SF-268 = test system: SF-268
Malme-3M = test system: Malme-3M
HT-29 = test system: HT-29
NCI-H226 = test system: NCI-H226
KM12 = test system: KM12
DLD-1 = test system: DLD-1
MOLT-4 = test system: MOLT-4
HOP-62 = test system: HOP-62
LOX IMVI = test system: LOX IMVI
UO-31 = test system: UO-31
ACHN = test system: ACHN
SNB-19 = test system: SNB-19
CAKI-1 = test system: CAKI-1
SK-MEL-5 = test system: SK-MEL-5
A549 = test system: A549
SR = test system: SR
HOP-92 = test system: HOP-92

Measured: GI50

COc1ccc(S(=O)(=O)NNS(C)(=O)=O)cc1OC
inactive: SF-268 79.4 µM | Malme-3M > 100 µM | HT-29 > 100 µM | NCI-H226 > 100 µM | KM12 > 100 µM | DLD-1 > 100 µM | MOLT-4 > 100 µM | HOP-62 > 100 µM | LOX IMVI > 100 µM | UO-31 > 100 µM | ACHN > 100 µM | SNB-19 > 100 µM | CAKI-1 > 100 µM | SK-MEL-5 > 100 µM | A549 > 100 µM | SR > 100 µM

CCOC(=O)C1=C(C)N(Cc2ccccc2)C(=O)C1CC#N (configuration not stated)
inactive: HT-29 > 100 µM | KM12 > 100 µM | DLD-1 56.1 µM | MOLT-4 55.3 µM | HOP-62 > 100 µM | UO-31 > 100 µM | ACHN > 100 µM | HOP-92 20.7 µM | SNB-19 > 100 µM | CAKI-1 > 100 µM | A549 > 100 µM | SR 49.8 µM

CCCCCCCCCCCCCP(=O)(NCC(N)=O)OCC (configuration not stated)
inactive: SF-268 19.1 µM | Malme-3M 17.7 µM | HT-29 17.2 µM | NCI-H226 17.5 µM | KM12 18.4 µM | DLD-1 17.1 µM | HOP-62 17.3 µM | LOX IMVI > 10 µM | UO-31 13.6 µM | ACHN 21.8 µM | HOP-92 17 µM | SNB-19 18.7 µM | SK-MEL-5 18.5 µM | A549 20.3 µM

Nc1ccc(C(=O)N/C(=C\c2ccc3c(c2)OCO3)c2nc3c(O)nc(S)nc3[nH]2)cc1
inactive: SF-268 > 100 µM | Malme-3M > 100 µM | HT-29 > 100 µM | KM12 > 100 µM | DLD-1 > 100 µM | MOLT-4 > 100 µM | UO-31 > 100 µM | ACHN > 100 µM | HOP-92 75.5 µM | SNB-19 > 100 µM | CAKI-1 > 100 µM | SK-MEL-5 > 100 µM | A549 > 100 µM | SR > 100 µM

CC(=O)N(C(C)=O)c1c(N)n(C)c(=O)[nH]c1=O
inactive: SF-268 > 100 µM | Malme-3M > 100 µM | HT-29 > 100 µM | NCI-H226 > 100 µM | KM12 > 100 µM | DLD-1 > 100 µM | MOLT-4 > 100 µM | LOX IMVI > 100 µM | UO-31 > 100 µM | ACHN > 100 µM | HOP-92 > 100 µM | SNB-19 > 100 µM | CAKI-1 > 100 µM | SK-MEL-5 > 100 µM | A549 > 100 µM

Cn1c2ccccc2n2c(=O)c3c(c(C#N)c12)CCCC3
inactive: SF-268 > 100 µM | Malme-3M > 100 µM | HT-29 > 100 µM | NCI-H226 > 100 µM | KM12 > 100 µM | DLD-1 > 100 µM | MOLT-4 > 100 µM | HOP-62 > 100 µM | LOX IMVI > 100 µM | UO-31 > 100 µM | ACHN > 100 µM | SNB-19 > 100 µM | CAKI-1 > 100 µM | SK-MEL-5 > 100 µM | A549 > 100 µM | SR > 100 µM

CCOC(=O)C(C)(C)Oc1ccc2c(-c3ccc(Cl)cc3)cc(=O)oc2c1
inactive: SF-268 > 100 µM | Malme-3M > 100 µM | HT-29 > 100 µM | NCI-H226 > 100 µM | DLD-1 > 100 µM | MOLT-4 > 100 µM | HOP-62 > 100 µM | LOX IMVI > 100 µM | UO-31 > 100 µM | ACHN > 100 µM | SNB-19 > 100 µM | SK-MEL-5 74.8 µM | A549 > 100 µM | SR > 100 µM

Nc1ccc(Nc2nc(F)nc(-c3c4ccccc4c4n3CCS4)n2)cc1
inactive: SF-268 15.7 µM | Malme-3M 14.5 µM | NCI-H226 11.6 µM | KM12 10.9 µM | DLD-1 16.7 µM | MOLT-4 11.2 µM | HOP-62 16 µM | LOX IMVI 10.4 µM | UO-31 8.38 µM | ACHN 12.7 µM | HOP-92 6.18 µM | SNB-19 15.4 µM | CAKI-1 11 µM | SK-MEL-5 13.1 µM | A549 10.5 µM

CCC(C)CC(C)CC(C)/C=C(\C)C1=C(C)CC(C)(O)O1 (configuration not stated)
inactive: HT-29 93.8 µM | NCI-H226 76.9 µM | DLD-1 > 100 µM | MOLT-4 35.7 µM | LOX IMVI > 100 µM | UO-31 26.3 µM | ACHN 87.5 µM | HOP-92 18.3 µM | CAKI-1 79.8 µM | SK-MEL-5 92.5 µM | A549 85.7 µM

C[C@@H]1C2=CC[C@@]3(C)C(CCC3[C@H](C)[C@H]3C[C@@]4(C)O[C@@](c5cccnc5)(O3)OC4(C)C)[C@@H]2C2OC2[C@@]12CCC(=O)O2 (some centres not stated)
inactive: SF-268 > 100 µM | Malme-3M 37.4 µM | HT-29 34.6 µM | KM12 38.8 µM | DLD-1 49.1 µM | HOP-62 66.7 µM | LOX IMVI 31.5 µM | UO-31 34.4 µM | ACHN 46.5 µM | HOP-92 26.8 µM | SNB-19 49.1 µM | CAKI-1 27.6 µM | SK-MEL-5 33 µM | A549 67.8 µM | SR 9.4 µM

— ChEMBL document CHEMBL1201862, “PubChem BioAssay data set” (2004)
